Consider 8 molecules from patent US8901313B2, “6,5-heterocyclic propargylic alcohol compounds and uses therefor” (Genentech, Inc., priority 2011, dated 2014).

Test [1] deals with T1, nuclear factor-kappa B (NF-kB)-inducing kinase (NIK) (Homo sapiens, UniProt Q99558).
T1 construct: made in house; host or cells: baculovirus-infected insect cells
Briefly: NIK Enzyme Inhibition Assay (Transcreener ADP assay). The test is classed as biochemical.

Test [2] concerns NF-kB signaling through NIK in human embryonic kidney 293 cells. The test can be described thus: 293-NIK NF-kB-Luciferase reporter assay. The test is classed as cell-based. In short, it runs like this:
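HEK293 cells stably carrying tetracycline-inducible NIK plus NF-kB (ELAM-1 element) firefly luciferase and constitutive TK-Renilla viability reporter. Compounds (0.2% DMSO) incubated 24 h with 1 ug/mL doxycycline; Dual Glo luminescence read, IC50 from firefly signal.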
In general terms: Reporter assays use an easily measured gene product as a stand-in for the process of interest.

Test [3] concerns human embryonic kidney 293 cells. Briefly: 293-NIK TK Renilla Luciferase reporter (general measure of cell viability). The test is classed as cell-based. An excerpt: (1) The first assay was used to profile whether a test compound can inhibit the NF-kB signally through NIK inhibition without affecting cell viability. In this assay, human embryonic kidney 293 cells was stably transfected with a tetracycline-inducible NIK DNA construct containing a cytomegalovirus promoter plus two reporter DNA constructs. One reporter encoded firefly luciferase under the control of three repeats of an NF-kB response element from the ELAM-1 gene and reflects the level of NIK activity in the cells, whereas the other reporter constitutively expressed Renilla luciferase under the control of the herpes simplex virus thymidine kinase promoter and served as a general measure of cell viability. Cells were incubated with different concentrations of compounds (0.2% DMSO final) in medium containing 1 ug/mL doxycycline and 10% tet-system approved fetal bovine serum (Clontech) for 24 hours, after which the reporters' signals were detected using the Dual Glo luciferase detection system (Promega) according to the vendor's protocol. The compounds listed in Table 1 have the corresponding inhibitory value (IC50 in micromolar) for 293-NIK NF-kB-Luciferase activity (values for compounds are presented in the same order as found in Table 1): na, 0.059, na, na, na, 0.105, 0.027, na, 20, 1.2, na, 1.8, 0.0231, 0.879, 0.0361, 0.582, na, 0.142, na, 0.403, 0.059, 0.0331, na, na, 0.0573, 1.5, na, na, 0.0722, na, na, 0.589, 12.7, 3.7, 14.9, na, 0.707, 1, 0.0311, 0.332, 0.309, 0.0142, 0.051, 2.8, 0.129, na, na, 1.5, na, na, na, 1.3, 0.062, 20, 0.31, 0.104, 0.091, 0.037, 0.085, 0.279, na, 0.305, 0.064, 0.332, 0.133, 0.168, 0.217, 0.553, na and na.
The compounds in listed in Table 1 have the corresponding inhibitory value (IC50 in micromolar) for 293-NIK TK Renilla Luciferase activity: (values for compounds are presented in the same order as found in Table 1): 6.4, 3.6, 20, na, 1.6, 9.3, 18.5, na, na, 2.6, na, na, na, na, na, na, na, na, na, na, na, na, na, na, na, na, na, na, na, na, na, na, na, na, na, na, na, na, na, na, na, na, na, na, na, na, na, >20, na, na, na, 20, >20, 17, 1.3, 15.6, 0.967, 2.7, 11.2, 5.1, na, 20, 20, 20, 20, 20, 17.6, 20, na and na.

In test [4] the test system is p52 (NF-kB2) nuclear translocation in HeLa cells. Briefly: NIK p52 Translocation Assay (non-classical NF-kB signaling). The test is classed as cell-based. Conditions: Homo sapiens. In short, it runs like this: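 HeLa cells in 10% FBS medium were exposed to compound (0.2% DMSO final) and stimulated with 100 ng/mL anti-lymphotoxin β receptor antibody for 5 h. Fixed cells were immunostained for p52 with DRAQ5 counterstain and imaged by high-content imaging. IC50 from nuclear/cytoplasmic p52 signal ratio vs concentration.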

The test system of test [5] is REL-A (p65) nuclear translocation in HeLa cells. Briefly: NIK RelA Translocation Assay (classical NF-kB signaling). The test is classed as cell-based. Conditions: Homo sapiens. In short, it runs like this: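 HeLa cells in 10% FBS medium were preincubated 4.5 h with compound (0.2% DMSO final), then stimulated with 10 ng/mL TNF-α for 30 min. After fixation, anti-REL-A (p65) immunostaining and DRAQ5 nuclear stain, high-content imaging gave the nuclear/cytoplasmic intensity ratio; IC50 from signal versus concentration.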

Where [6] appears, read: comparative data, Tables 16A-16D, read-out: NIK ADP (Ki).
Where [7] appears, read: HEK293, comparative data, Tables 16A-16D, read-out: 293-NIK NF-kB-Luciferase (IC50).
The mark [8] stands for this setting: HEK293, comparative data, Tables 16A-16D, read-out: 293-NIK TK Renilla Luciferase (IC50).
Where [9] appears, read: HeLa, comparative data, Tables 16A-16D, read-out: NIK p52 Translocation (IC50).
The mark [10] stands for this setting: HeLa, comparative data, Tables 16A-16D, read-out: NIK RelA Translocation (IC50).
[11] abbreviates: purified NIK 0.2-1 nM, 10 uM ATP, fluorescence polarization, Morrison's quadratic equation, read-out: inhibitory value (Ki) for NIK.
[12] abbreviates: HEK293, 293 cells with tetracycline-inducible NIK, 1 ug/mL doxycycline, 24 hours, read-out: inhibitory value (IC50) for 293-NIK NF-kB-Luciferase activity.
[13] abbreviates: HEK293, 293 cells, constitutive Renilla luciferase, 24 hours, read-out: inhibitory value (IC50) for 293-NIK TK Renilla Luciferase activity.
Where [14] appears, read: HeLa cells, 100 ng/mL anti-lymphotoxin beta receptor antibody, 5 hours, read-out: inhibitory value (IC50) for NIK p52 Translocation Assay.
[15] abbreviates: HeLa cells, compounds 4.5 hours, 10 ng/mL TNF-α 30 minutes, read-out: inhibitory value (IC50) for NIK RelA Translocation Assay.

Read-outs that look alike come from different tables or passages of the source.

T1 sequence (Q99558 whole entry): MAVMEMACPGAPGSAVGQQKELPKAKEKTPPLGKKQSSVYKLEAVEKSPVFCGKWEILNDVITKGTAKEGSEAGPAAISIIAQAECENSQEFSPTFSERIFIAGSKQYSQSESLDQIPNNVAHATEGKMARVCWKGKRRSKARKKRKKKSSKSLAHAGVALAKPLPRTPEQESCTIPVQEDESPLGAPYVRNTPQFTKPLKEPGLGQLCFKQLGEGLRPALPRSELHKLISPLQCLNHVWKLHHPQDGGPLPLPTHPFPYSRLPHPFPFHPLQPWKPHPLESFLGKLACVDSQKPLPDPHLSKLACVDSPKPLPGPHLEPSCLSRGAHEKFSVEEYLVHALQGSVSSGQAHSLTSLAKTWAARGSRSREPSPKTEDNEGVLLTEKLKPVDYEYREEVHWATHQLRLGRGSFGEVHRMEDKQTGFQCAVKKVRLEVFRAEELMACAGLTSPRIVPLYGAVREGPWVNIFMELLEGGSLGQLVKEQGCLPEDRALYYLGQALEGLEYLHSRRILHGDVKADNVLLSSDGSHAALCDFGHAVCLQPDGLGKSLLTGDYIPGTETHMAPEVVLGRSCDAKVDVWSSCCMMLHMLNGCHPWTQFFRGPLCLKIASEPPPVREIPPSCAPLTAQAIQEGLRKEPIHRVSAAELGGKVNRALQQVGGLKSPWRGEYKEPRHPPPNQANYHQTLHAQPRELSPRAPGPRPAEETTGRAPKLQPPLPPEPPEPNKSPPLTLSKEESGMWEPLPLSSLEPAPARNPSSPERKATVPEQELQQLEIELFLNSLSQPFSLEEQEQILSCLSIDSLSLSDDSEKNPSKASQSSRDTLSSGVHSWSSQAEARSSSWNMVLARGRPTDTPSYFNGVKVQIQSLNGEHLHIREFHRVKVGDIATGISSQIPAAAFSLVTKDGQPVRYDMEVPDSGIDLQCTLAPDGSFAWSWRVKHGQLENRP

What is called Ki is the equilibrium dissociation constant of an inhibitor or competing ligand from its target. The term IC50 denotes the point on the concentration scale where inhibition reaches its midpoint. With `CN(C)C(=O)c1nn(-c2ccnc(N)n2)c2cc(C#CC(C)(O)c3ncco3)ccc12` (stereo not shown) [1-(2-aminopyrimidin-4-yl)-6-(3-hydroxy-3-(oxazol-2-yl)but-1-ynyl)-N,N-dimethyl-1H-indazole-3-carboxamide], in test [1] (setting [6]), the inhibitory constant (Ki) came out at 0.2 nM. For the same molecule, the IC50 was 51 nM in test [2] (setting [7]), 0.583 µM in test [3] (setting [8]), 346 nM in test [4] (setting [9]) and over 20000 nM in test [5] (setting [10]).

Take `Cc1nn(-c2ccnc(N)n2)c2cc(C#C[C@@](C)(O)c3nccs3)c(F)cc12` [Example T1-55, (R)-4-(1-(2-aminopyrimidin-4-yl)-5-fluoro-3-methyl-1H-indazol-6-yl)-2-(thiazol-2-yl) but-3-yn-2-ol]: the Ki in test [1] (setting [11]) came to 0.2 nM. In addition, the IC50 in test [2] (setting [12]) is 310 nM; in test [3] (setting [13]), 1.3 µM; in test [4] (setting [14]), 243 nM; in test [5] (setting [15]) it was 89 nM.

With `Cc1cc(C(C)(O)C#Cc2ccc3nc(C4CC4)n(-c4ncnc(N)n4)c3c2)no1` (stereo not shown) [Example T1-60, 4-(1-(4-amino-1,3,5-triazin-2-yl)-2-cyclopropyl-1H-benzo [d]imidazol-6-yl)-2-(5-methyl-isoxazol-3-yl)but-3-yn-2-ol], the Ki in test [1] (setting [11]) was 2.2 nM. Further, the half-maximal inhibitory concentration (IC50) turned out to be 279 nM in test [2] (setting [12]), 5.1 µM in test [3] (setting [13]), 552 nM in test [4] (setting [14]) and 1000 nM in test [5] (setting [15]).

As to `CC(O)(C#Cc1ccc2cnn(-c3ccnc(N)n3)c2c1)c1ncco1` (stereo not shown) [4-(1-(2-aminopyrimidin-4-yl)-1H-indazol-6-yl)-2-(oxazol-2-yl)but-3-yn-2-ol], the Ki in test [1] (setting [6]) came out at 0.3 nM. The concentration for half-maximal inhibition (IC50) in test [2] (setting [7]) is 36 nM; in test [3] (setting [8]) it was 0.514 µM; in test [4] (setting [9]) it was 77 nM; in test [5] (setting [10]), over 20000 nM.

Take `CC(O)(C#Cc1ccc2ncn(-c3ccnc(N)n3)c2c1)c1nccs1` (stereo not shown) [Example T1-7, 4-(1-(2-aminopyrimidin-4-yl)-1H-benzo[d]imidazol-6-yl)-2-(thiazol-2-yl)but-3-yn-2-ol]: the inhibition constant Ki in test [1] (setting [11]) came to 0.28 nM. The concentration for half-maximal inhibition (IC50) came out at 27 nM in test [2] (setting [12]), 18.5 µM in test [3] (setting [13]), 70 nM in test [4] (setting [14]) and 70 nM in test [5] (setting [15]).

As for `CC(O)(C#Cc1ccc2c(c1)N(c1ccnc(N)n1)CC2)c1nccs1` (stereo not shown) [4-(1-(2-aminopyrimidin-4-yl)indolin-6-yl)-2-(thiazol-2-yl)but-3-yn-2-ol, reference compound], in test [1] (setting [6]), the inhibition constant (Ki) is 2.7 nM. Besides, the IC50 in test [2] (setting [7]) was 126 nM; in test [3] (setting [8]), 3.9 µM; in test [4] (setting [9]), 862 nM; in test [5] (setting [10]), over 20000 nM.

On to `Cc1cnc(C(C)(O)C#Cc2ccc3c(C)nn(-c4ccnc(N)n4)c3c2)s1` (stereo not shown) [Example T1-56, 4-(1-(2-aminopyrimidin-4-yl)-3-methyl-1H-indazol-6-yl)-2-(5-methylthiazol-2-yl)but-3-yn-2-ol], for which, in test [1] (setting [11]), the Ki is 1.6 nM. In addition, the IC50 in test [2] (setting [12]) came out at 104 nM; in test [3] (setting [13]), 15.6 µM; in test [4] (setting [14]), 747 nM; in test [5] (setting [15]) it was 479 nM.

`CC(O)(C#Cc1ccc2cnn(-c3nc(N)ncc3Cl)c2c1)c1nccs1` (stereo not shown) [Example T1-6, 4-(1-(2-amino-5-chloro-pyrimidin-4-yl)-1H-indazol-6-yl)-2-(thiazol-2-yl)but-3-yn-2-ol]: in test [1] (setting [11]), the Ki amounted to 0.14 nM. For the same molecule, the concentration for half-maximal inhibition (IC50) in test [2] (setting [12]) was 105 nM; in test [3] (setting [13]), 9.3 µM; in test [4] (setting [14]) it was 218 nM; in test [5] (setting [15]) it was 218 nM.
